From patent publication US5348956A, “Substituted cyclopropylamino-1,3,5-triazines” (UCB S.A., priority 1991, dated 1994)
Read-outs that look alike come from different tables or passages of the source.

Legend:
[1] = system: bronchospasm induced by histamine; test: bronchospasmolytic activity (Konzett and Roessler), bronchospasm induced by histamine; assay type: in vivo, Dunkin-Hartley guinea-pig; conditions: Cavia porcellus; intravenous; histamine-induced bronchospasm; read-out: Doses (ID50), Histamine
Protocol: (§1) This activity was measured in the Dunkin-Hartley guinea-pig by the method of H. KONZETT and […] (Naunyn Schmiedebergs Arch. exp. Path. […] The anesthetized (urethane) and curarized (gallamine) guinea-pig is placed under assisted respiration. The endotracheal pressure is recorded. […] The compound to be tested is also administered intravenously two minutes before the administration of the spasmogen and then in 3 to 4 cumulative doses in increasing amounts at intervals of 15 minutes. Six animals per compound to be tested and per spasmogen are used.

[2] = system: anaphylactic release of histamine, guinea-pig lung sections; test: potentiation of the inhibition of anaphylactic histamine release by isoprenaline; assay type: cell-based, Dunkin-Hartley guinea-pigs; conditions: with isoprenaline 10^-7 mole per liter
Protocol: (§2) Dunkin-Hartley guinea-pigs which are first passively sensitized by an intravenous injection of 1 ml of isologous antiovalbumin serum are used. Twenty-four hours after the injection, the lungs are then perfused with a Tyrode buffer to evacuate the blood, and then removed and cut into sections of 1 mm. These sections are divided up into test tubes (3 sections per tube) to give 10 experimental groups of lung sections per guinea-pig. A "positive" control group of lung sections is stimulated by addition of an ovalbumin solution (0.1 mg/ml) to induce the anaphylactic release of histamine and serves to determine the maximum amount of histamine (100%) which can be released. A "negative" control group which is not stimulated by ovalbumin serves to determine the naturally released amount of histamine (spontaneous release). In three other groups, the lung sections are incubated at 37° C. for 30 minutes in the ovalbumin solution in the presence of three different doses of the compound to be tested (one dose per group). […] At this dose, isoprenaline inhibits the release of histamine by 30 to 40%, which is verified on a control group treated only with isoprenaline alone at this dose. In addition, a supplementary control group which is not stimulated by ovalbumin is used to detect a possible spontaneous release of histamine by the highest dose of the compound tested. In each group, the histamine released in the incubation medium is measured by spectrofluorometry (D. P. EVANS et al., Life Sci., 12, (1973), 327-336).

[3] = system: anaphylactic release of histamine, guinea-pig lung sections; test: inhibition of the anaphylactic release of histamine (proper effect); assay type: cell-based, Dunkin-Hartley guinea-pigs; conditions: Cavia porcellus, in vitro, read-out: Minimum inhibitory dose (MID)
Protocol: as §2

[4] = toxicity, Irwin's test; assay type: in vivo; conditions: i.p.; death of two animals out of three within 48 hours
Protocol: Progressive doses of the compound to be tested are administered intraperitoneally to groups of three mice until the lethal dose is reached (dose which causes the death of two animals out of three within 48 hours).

[5] = system: amnesia induced by scopolamine; test: multiple-trial passive avoidance: mnemic retention, amnesia induced by scopolamine
Protocol: To this end, the method of multiple-trial passive avoidance has been used. […] The test is carried out on male Sprague-Dawley rats (160-200 g). which are kept in standard cages throughout the experiment. The apparatus used is a transparent square cage with 35 cm sides and 25 cm high, fitted with a grid floor which can be electrified. A rubber insulating mat (10×17 cm) is placed on the floor in one of the corners of the cage.
Each animal is subjected to four tests at times 0, 4, 24 and 28 hours. In the first test (time 0), the animal is placed on the rubber mat and the time which it takes to decide to leave this position to explore the cage is recorded. After 20 seconds of exploration, the rat receives an electric shock (3 seconds duration) in the paws, causing an escape reaction. The rat is immediately removed from the apparatus and replaced in its original cage. In the course of the three subsequent tests (times: 4, 24 and 28 hours), the animal is replaced on the rubber mat and the time taken to leave this position is recorded. As soon as the four paws of the animal rest on the grid, it receives an electric shock and is removed immediately from the apparatus.
At the start of the experiment, the rats are divided into 4 homogeneous groups of 15 animals. Thirty minutes before each test, each group of animals is subjected to a predetermined treatment:
Groups 1 and 2 are used in the first experiment (learning) and groups 3 and 4 in the second experiment (mnemic retention).
The differences found are analyzed statistically by the Mann-Whitney method.

[6] = system: bronchospasm induced by serotonin; test: bronchospasmolytic activity (Konzett and Roessler), bronchospasm induced by serotonin; assay type: in vivo, Dunkin-Hartley guinea-pig; conditions: Cavia porcellus; intravenous; serotonin-induced bronchospasm; read-out: Doses (ID50), Serotonin
Protocol: as §1

[7] = system: plantar edema induced by immune complexes; test: "reverse passive Arthus" (RPA) test, anti-inflammatory and anti-edema activity; assay type: in vivo, Sprague-Dawley rat; conditions: Rattus norvegicus, intravenous
Protocol: The reaction between a soluble antigen and antibodies in the organism may lead to an acute inflammatory reaction accompanied by release of histamine, modification of vascular permeability and formation of a localized edema. […] To this end, the Arthus reaction is induced by subplantar administration of 0.1 ml of heterologous antivalbumin reaginic serum into the right hind paw and by simultaneous intravenous injection of 1 ml/kg ovalbumin (25 mg/ml). The compound to be tested is administered intravenously 30 seconds before induction of the Arthus reaction, in a least 3 different doses. A group of 6 rats is used per dose of compound to be tested. The volume of the paw is measured by plethysmometry before the Arthus reaction and 3 to 5 hours after induction of the Arthus reaction, both in the control animals and in the treated animals. The effect of a compound on the reduction in the edema for each dose and at each measurement time (3 hours and 5 hours) is expressed in % of the edema observed in the control animals. The doses of the compounds (ID30 in μmole/kg) which inhibit by 30%, on average over all the animals, the volume of the edema observed in the control animals are given in Table VII below.

[8] = system: bronchospasm induced by acetylcholine; test: bronchospasmolytic activity (Konzett and Roessler), bronchospasm induced by acetylcholine; assay type: in vivo, Dunkin-Hartley guinea-pig; conditions: Cavia porcellus; intravenous; acetylcholine-induced bronchospasm; read-out: Doses (ID50), Acetylcholine
Protocol: as §1

[9] = system: longitudinal muscles of the ileum contracted by histamine; test: potentiation of the myorelaxing effect of isoprenaline on the ileum; assay type: cell-based, Dunkin-Hartley guinea-pigs; conditions: with isoprenaline 10^-7 mole/l; histamine 3.2 μmoles/l
Protocol: (cf. R. A. TURNER, "Screening Methods in Pharmacology", Ed. Acad. Press, San Diego, 1965, chapter IV, pages 43-47). […] Inhibition cycle: When the successive contractions induced by the histamine injections have become reproducible, the compound to be tested is injected immediately after the second wash. The contraction induced by the following injection of histamine is measured and compared with the average of the three preceding contractions caused by the repeated injections of histamine (control contractions). From the result obtained, the percentage inhibition of the contraction is calculated. Several cycles of histamine injection are then performed again, until the contractions of the muscle become reproducible again; the muscle is then ready for testing of another compound. The potentiating effect of a compound is measured in the course of a so-called "potentiation" cycle, which comprises three successive inhibition cycles. […] In the course of the second inhibition cycle, the percentage inhibition of the contraction obtained with the compound to be tested, injected alone at a given dose, is determined. In the third inhibition cycle, isoprenaline and the compound to be tested are injected simultaneously, and the percentage inhibition of the contraction is calculated for the dose used of the compound tested. The same experiments are repeated for each of the doses of the compounds tested.

[10] = 3 hours after induction of the Arthus reaction, read-out: Dose (ID30), 3 hours
[11] = 5 hours after induction of the Arthus reaction, read-out: Dose (ID30), 5 hours
[12] = 4 hours, 1.0 mg/kg i.p. + 0.5 mg scopolamine
[13] = 24 hours, 1.0 mg/kg i.p. + 0.5 mg scopolamine
[14] = 28 hours, 1.0 mg/kg i.p. + 0.5 mg scopolamine
[15] = time 0, 1.0 mg/kg i.p. + 0.5 mg scopolamine
[16] = 4 hours, 2.8 mg/kg i.p. + 0.5 mg scopolamine
[17] = 24 hours, 2.8 mg/kg i.p. + 0.5 mg scopolamine
[18] = 28 hours, 2.8 mg/kg i.p. + 0.5 mg scopolamine
[19] = time 0, 2.8 mg/kg i.p. + 0.5 mg scopolamine

Structure (SMILES)	ED50 [1]	Minimum potentiating dose (MPD) [2]	minimal effective concentration [3]	Lethal dose [4]	ED50 [6]	ED30 [7, 10]	ED30 [7, 11]	ED50 [8]	Minimum potentiating dose (MPD) [9]	Period of remaining on the mat, group 4 [5, 12]	Period of remaining on the mat, group 4 [5, 13]	Period of remaining on the mat, group 4 [5, 14]	Period of remaining on the mat, group 4 [5, 15]	Period of remaining on the mat, group 4 [5, 16]	Period of remaining on the mat, group 4 [5, 17]	Period of remaining on the mat, group 4 [5, 18]	Period of remaining on the mat, group 4 [5, 19]	also measured
CCCc1nc(NC2CC2)nc(N2CC3CCC(C2)O3)n1 [Compound 11]	0.1 µmol/kg	0.32 µmol/L	1 µM	325.8 mg/kg	0.1 µmol/kg	0.5 µmol/kg	0.4 µmol/kg	0.09 µmol/kg	0.032 µmol/L	–	–	–	–	–	–	–	–	Period of remaining on the mat, group 4 ([5]; 4 hours, 3.3 mg/kg i.p. + 0.5 mg scopolamine): 21.4 s; Period of remaining on the mat, group 4 ([5]; 24 hours, 3.3 mg/kg i.p. + 0.5 mg scopolamine): 58.6 s; Period of remaining on the mat, group 4 ([5]; 28 hours, 3.3 mg/kg i.p. + 0.5 mg scopolamine): 93.2 s; Period of remaining on the mat, group 4 ([5]; time 0, 3.3 mg/kg i.p. + 0.5 mg scopolamine): 10.7 s
OC1CN(c2nc(NC3CC3)nc(C3CC3)n2)C1 [Compound 13]	0.1 µmol/kg	1.0 µmol/L	1 µM	247.3 mg/kg	0.6 µmol/kg	9 µmol/kg	4 µmol/kg	1.3 µmol/kg	1.0 µmol/L	–	–	–	–	–	–	–	–	Period of remaining on the mat, group 4 ([5]; 4 hours, 2.5 mg/kg i.p. + 0.5 mg scopolamine): 55.3 s; Period of remaining on the mat, group 4 ([5]; 24 hours, 2.5 mg/kg i.p. + 0.5 mg scopolamine): 92.5 s; Period of remaining on the mat, group 4 ([5]; 28 hours, 2.5 mg/kg i.p. + 0.5 mg scopolamine): 99.0 s; Period of remaining on the mat, group 4 ([5]; time 0, 2.5 mg/kg i.p. + 0.5 mg scopolamine): 7.7 s
CC(C)c1nc(NC2CC2)nc(N2CC3CCC(C2)O3)n1 [Compound 12]	0.04 µmol/kg	0.1 µmol/L	0.1 µM	325.8 mg/kg	0.06 µmol/kg	2.5 µmol/kg	3 µmol/kg	0.2 µmol/kg	0.01 µmol/L	18.0 s	51.1 s	94.5 s	3.6 s	–	–	–	–	–
CCc1nc(NC2CC2)nc(N2CCOCC2)n1 [Compound 2]	0.3 µmol/kg	3.2 µmol/L	1 µM	285 mg/kg	0.5 µmol/kg	2.3 µmol/kg	0.7 µmol/kg	0.5 µmol/kg	1.0 µmol/L	18.9 s	24.3 s	36.5 s	7.9 s	–	–	–	–	–
CCCc1nc(NC2CC2)nc(N2CCC(O)CC2)n1 [Compound 5]	0.06 µmol/kg	3.2 µmol/L	0.32 µM	277.4 mg/kg	0.1 µmol/kg	3.1 µmol/kg	27 µmol/kg	0.1 µmol/kg	1.0 µmol/L	–	–	–	–	34.2 s	35.9 s	73.3 s	14.5 s	–
OCCN(CCO)c1nc(NC2CC2)nc(C2CC2)n1 [Compound 7]	0.2 µmol/kg	1.0 µmol/L	0.32 µM	279.3 mg/kg	0.4 µmol/kg	7.7 µmol/kg	11 µmol/kg	0.7 µmol/kg	0.32 µmol/L	–	–	–	–	34.5 s	94.0 s	133.0 s	9.8 s	–
C1CC(c2nc(NC3CC3)nc(N3CCOCC3)n2)C1 [Compound 4, 2-cyclobutyl-4-cyclopropylamino-6-morpholino-1,3,5-triazine]	0.004 µmol/kg	0.1 µmol/L	0.32 µM	165 mg/kg	0.03 µmol/kg	9 µmol/kg	10 µmol/kg	0.03 µmol/kg	0.032 µmol/L	–	–	–	–	44.5 s	91.5 s	106.6 s	12.3 s	–
C1CN(c2nc(NC3CC3)nc(C3CC3)n2)CCO1.Cl [Compound 3, 2-cyclopropyl-4-cyclopropylamino-6-morpholino-1,3,5-triazine hydrochloride]	0.03 µmol/kg	0.32 µmol/L	0.032 µM	297.8 mg/kg	0.1 µmol/kg	0.8 µmol/kg	0.4 µmol/kg	0.07 µmol/kg	0.032 µmol/L	35.5 s	105.0 s	121.0 s	6.5 s	–	–	–	–	–
CCCc1nc(NC2CC2)nc(N(CCO)CCO)n1 [Compound 6]	0.1 µmol/kg	1.0 µmol/L	1 µM	635.6 mg/kg	0.1 µmol/kg	12 µmol/kg	9 µmol/kg	0.3 µmol/kg	1.0 µmol/L	–	–	–	–	–	–	–	–	Period of remaining on the mat, group 4 ([5]; 4 hours, […] i.p. + 0.5 mg scopolamine): 11.7 s; Period of remaining on the mat, group 4 ([5]; 24 hours, […] i.p. + 0.5 mg scopolamine): 24.8 s; Period of remaining on the mat, group 4 ([5]; 28 hours, […] i.p. + 0.5 mg scopolamine): 28.7 s; Period of remaining on the mat, group 4 ([5]; time 0, […] i.p. + 0.5 mg scopolamine): 5.3 s
